System: MCF-7, clone WS8, cells
Assay: MCF-7 cell proliferation assay of estrogenic activity
Format: cell-based, human
Conditions: logarithmic (base 10) Relative Proliferative Effect vs 17-beta estradiol; 'expected or measured' values, not told apart
Source text: The MCF-7 assay uses MCF-7, clone WS8, cells to measure whether and to what extent a substance induces cell proliferation via estrogen receptor (ER)-mediated pathways. The method is described in “Test Method Nomination: MCF-7 Cell Proliferation Assay of Estrogenic Activity” submitted for validation by CertiChem, Inc. to the National Toxicology Program Interagency Center for the Evaluation of Alternative Toxicological Methods (NICEATM) on Jan. 19, 2006 (available online at http://iccvam.niehs.nih.gov/methods/endocrine/endodocs/SubmDoc.pdf).
A brief summary of the method of the aforementioned MCF-7 assay is provided below. MCF-7, clone WS8, cells are maintained at 37° C. in RMPI (or Roswell Park Memorial Institute medium) containing Phenol Red (e.g., GIBCO Catalog Number 11875119) and supplemented with the indicated additives for routine culture. An aliquot of cells maintained at 37° C. are grown for 2 days in phenol-free media containing 5% charcoal stripped fetal bovine serum in a 25 cm^2 tissue culture flask. Using a robotic dispenser such as an epMotion 5070 unit, MCF-7 cells are then seeded at 400 cells per well in 0.2 ml of hormone-free culture medium in Corning 96-well plates. The cells are adapted for 3 days in the hormone-free culture medium prior to adding the chemical to be assayed for estrogenic activity. The media containing the test chemical is replaced daily for 6 days. At the end of the 7-day exposure to the test chemical, the media is removed, the wells are washed once with 0.2 ml of HBSS (Hanks' Balanced Salt Solution), and then assayed to quantify amounts of DNA per well using a micro-plate modification of the Burton diphenylamine (DPA) assay, which is used to calculate the level of cell proliferation.
RPE is the ratio between the EC50 of the test chemical and the EC50 of the control substance 17-beta estradiol times 100, where EC50 is “effective concentration 50%” or half-maximum stimulation concentration for cell proliferation measured as total DNA in the MCF-7 assay.

Structure (SMILES) | Log RPE
O=S(=O)(c1ccc(O)cc1)c1ccc(O)cc1 [Bisphenol S] | −2
C[C@]12CC[C@@H]3c4ccc(O)cc4CC[C@H]3[C@@H]1CC[C@@H]2O [17β-estradiol] | 2.00
Oc1ccc(Cc2ccc(O)cc2)cc1 [Bisphenol F] | −2

— patent publication US11634607B2, “Compositions for containers and other articles and methods of using same” (SWIMC LLC, priority 2011, dated 2023)
